Experimental data from the NIST ThermoML archive (doi:10.1016/j.fluid.2019.02.010).

Experiment: xn = mol fraction of the nth substance listed
Conditions: 101 kPa, Liquid, Vibrating tube method

CCN(CC)CC(=O)Nc1c(C)cccc1C [2-(diethylamino)-N-(2,6-dimethylphenyl)acetamide] + CCCCCCCCCC(=O)O
mass density [kg/m3]
Conditions	293 K	298 K	303 K	308 K	313 K	318 K	323 K	328 K
x2 = 0.667	960.9	956.8	952.8	948.7	944.7	940.6	936.4	932.3
x2 = 0.75	952.5	948.4	944.3	940.2	936.1	931.9	927.7	923.5
x2 = 0.8	944.9	940.9	936.9	932.9	928.9	924.7	920.6	916.4

CCN(CC)CC(=O)Nc1c(C)cccc1C [2-(diethylamino)-N-(2,6-dimethylphenyl)acetamide] + CCCCCCCCCCCC(=O)O
x2 = 0.667
Conditions	mass density [kg/m3]
293 K	949.6
298 K	945.6
303 K	941.6
308 K	937.6
313 K	933.6
318 K	929.6
323 K	925.55
328 K	921.5

CCN(CC)CC(=O)Nc1c(C)cccc1C [2-(diethylamino)-N-(2,6-dimethylphenyl)acetamide] + Cc1ccc(C(C)C)c(O)c1
x2 = 0.667
Conditions	mass density [kg/m3]
293 K	989.1
298 K	985.4
303 K	981.6
308 K	977.9
313 K	974.2
318 K	970.4
323 K	966.6
328 K	962.9

Cc1ccc(C(C)C)c(O)c1 [3-methyl-6-isopropylphenol] + CCCCCCCCCC(=O)O
x2 = 0.5
Conditions	mass density [kg/m3]
293 K	931.8
298 K	928
303 K	924.2
308 K	920.3
313 K	916.5
318 K	912.6
323 K	908.7
328 K	904.9

CCCCCCCCCC(=O)O [decanoic acid] + CC(C)[C@@H]1CC[C@@H](C)C[C@H]1O
x1 = 0.5
Conditions	mass density [kg/m3]
293 K	901.1
298 K	897.6
303 K	894
308 K	890.4
313 K	886.7
318 K	883.1
323 K	879.4
328 K	875.7

CCCCCCCC[N+](CCCCCCCC)(CCCCCCCC)CCCCCCCC.[Br-] [tetraoctylammonium bromide] + CCCCCCCCCC(=O)O
x2 = 0.667
Conditions	mass density [kg/m3]
293 K	932.9
298 K	929.6
303 K	926.3
308 K	923
313 K	919.7
318 K	916.5
323 K	913.2
328 K	910
